Bridge positions count the residues as written; N and C are the ends. Square brackets hold non-standard residues; d marks the D form. Peptide text beside a SMILES is read from it. * marks the point of attachment. ξ: configuration not given here. Bip = N[C@@H](Cc1ccc(-c2ccccc2)cc1)C(=O)O; Phe(3-Me) = Cc1cccc(C[C@H](N)C(=O)O)c1; Bta = N[C@@H](Cc1csc2ccccc12)C(=O)O; dBta = N[C@H](Cc1csc2ccccc12)C(=O)O; Val(3-OH) = CC(C)(O)[C@H](N)C(=O)O; ξPhe(2-Me) = Cc1ccccc1CC(N)C(=O)O; 3Pal = N[C@@H](Cc1cccnc1)C(=O)O; 4Pal = N[C@@H](Cc1ccncc1)C(=O)O; 2Thi = N[C@@H](Cc1cccs1)C(=O)O; Cha = N[C@@H](CC1CCCCC1)C(=O)O; Cit = NC(=O)NCCC[C@H](N)C(=O)O; NMeL = CN[C@@H](CC(C)C)C(=O)O; Hpra = C#CCC[C@H](N)C(=O)O; Carboxymethyl = O=C(O)C*; NMeA = CN[C@@H](C)C(=O)O; Orn = NCCC[C@H](N)C(=O)O; Dab = NCC[C@H](N)C(=O)O

From US20240409585A1, “MACROCYCLIC IMMUNOMODULATORS” (priority 2021, published 2024) come the findings set out here.

For this assay, the target named is T1, PE-labeled human PD-L1-Ig binding to Jurkat cell line over-expressing human PD-1 (Jurkat-PD-1) (Homo sapiens, UniProt Q15116).
T1 construct: expressed in transfected cells; host or cells: Jurkat
T1 sequence (Q15116 25-288): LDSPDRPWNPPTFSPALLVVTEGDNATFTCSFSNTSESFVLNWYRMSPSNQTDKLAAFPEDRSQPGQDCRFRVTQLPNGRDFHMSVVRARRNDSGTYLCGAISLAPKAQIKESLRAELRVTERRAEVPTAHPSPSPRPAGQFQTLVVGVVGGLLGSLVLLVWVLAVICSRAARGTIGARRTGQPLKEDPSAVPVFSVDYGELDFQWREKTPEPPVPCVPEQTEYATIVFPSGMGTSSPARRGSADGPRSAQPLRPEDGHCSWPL
Description: Jurkat-PD-1 Cell Binding High-Content Screening Assay (CBA): Method 1. The note with it: Jurkat-hPD-1 cells, PE-labeled PD-L1-Ig 20 nM final; read-out: Jurkat HPDL1 PD1 IC50 (uM) (Method 1).
In the case of `Cc1cccc(C[C@@H]2NC(=O)[C@H](CC(N)=O)NC(=O)[C@H](Cc3ccc(OCC(=O)O)cc3)NC(=O)[C@H]([C@@H](C)O)NC(=O)CSC[C@@H](C(=O)N[C@@H](CCN)C(N)=O)NC(=O)[C@H](CCC(=O)O)NC(=O)[C@H](C(C)C)NC(=O)[C@H](CC3CCCCC3)NC(=O)[C@H](CCN)NC(=O)[C@@H](CC(C)C)NC(=O)[C@H](C)N(C)C(=O)[C@H](Cc3ccc(OCC(=O)O)cc3)NC(=O)[C@H](Cc3ccc(-c4ccccc4)cc3)NC(=O)[C@H](Cc3ccc(OCC(=O)O)cc3)NC2=O)c1` [Example 2281] ({CH2CO}-TY(Carboxymethyl)N[Phe(3-Me)]Y(Carboxymethyl)[Bip]Y(Carboxymethyl)[NMeA][dL][Dab][Cha]VEC[Dab]-NH2; thioether N-14), the IC50 worked out at 0.77 µM.

In the case of `CC[C@H](C)[C@@H]1NC(=O)[C@H](Cc2ccc(-c3ccccc3)cc2)NC(=O)[C@H](C(C)C)NC(=O)[C@H](Cc2c[nH]c3ccccc23)NC(=O)[C@H](CC(=O)O)NC(=O)[C@H](Cc2ccc(O)cc2)NC(=O)[C@H](Cc2ccncc2)NC(=O)CSC[C@@H](C(=O)N[C@@H](C)C(N)=O)NC(=O)[C@H]([C@@H](C)O)NC(=O)[C@H](C(C)C)NC(=O)[C@H](CC(C)C)NC(=O)[C@H](CCN)NC(=O)[C@@H](CC(C)C)NC(=O)[C@H](C)N(C)C1=O` [Compound 1400] ({CH2CO}-[4Pal]YDWV[Bip]I[NMeA][dL][Dab]LVTCA-NH2; thioether N-14), the IC50 worked out at 0.02 µM.

Consider `CC(C)C[C@@H]1NC(=O)[C@H](Cc2c[nH]c3ccccc23)NC(=O)[C@H](CC(=O)O)NC(=O)[C@H](Cc2ccncc2)NC(=O)[C@H](Cc2ccc(OCC(=O)O)cc2)NC(=O)CSC[C@@H](C(=O)N[C@@H](CC(N)=O)C(N)=O)NC(=O)[C@H]([C@@H](C)O)NC(=O)[C@H](C(C)C)NC(=O)[C@H](CC2CCCCC2)NC(=O)[C@H](CCN)NC(=O)[C@@H](CC(C)C)NC(=O)[C@H](C)N(C)C(=O)[C@H](C(C)C)NC(=O)[C@H](Cc2ccc(-c3ccccc3)cc2)NC1=O` [Compound 1902] ({CH2CO}-Y(Carboxymethyl)[4Pal]DWL[Bip]V[NMeA][dL][Dab][Cha]VTCN-NH2; thioether N-14), for which the half-maximal inhibitory concentration (IC50) worked out at 0.01 µM.

For `Cc1ccccc1CC1NC(=O)[C@H](C)N(C)C(=O)[C@H](CCCNC(=N)N)NC(=O)[C@H](Cc2ccc(-c3ccccc3)cc2)NC(=O)[C@H](C(C)C)NC(=O)[C@H](Cc2c[nH]c3ccccc23)NC(=O)[C@H](CC(=O)O)NC(=O)[C@H](Cc2ccc(O)cc2)NC(=O)[C@H](Cc2ccccc2)NC(=O)CSC[C@@H](C(=O)N[C@@H](C)C(N)=O)NC(=O)[C@H]([C@@H](C)O)NC(=O)[C@H](C(C)C)NC(=O)[C@H](CC(C)C)NC(=O)[C@H](CCCNC(=N)N)NC1=O` (stereo partly drawn) [Compound 1065] ({CH2CO}-FYDWV[Bip]R[NMeA][ξPhe(2-Me)]RLVTCA-NH2; thioether N-14), the IC50 was determined as 0.11 µM.

On to `CC(C)C[C@@H]1NC(=O)[C@H](CCCNC(=N)N)NC(=O)[C@H](Cc2csc3ccccc23)NC(=O)[C@H](C)N(C)C(=O)[C@H](CCCNC(=N)N)NC(=O)[C@H](Cc2ccc(-c3ccccc3)cc2)NC(=O)[C@H](C(C)C)NC(=O)[C@H](Cc2c[nH]c3ccccc23)NC(=O)[C@H](CC(=O)O)NC(=O)[C@H](Cc2ccc(O)cc2)NC(=O)[C@H](CC(N)=O)NC(=O)CSC[C@@H](C(=O)N[C@@H](C)C(N)=O)NC(=O)[C@H](CO)NC(=O)[C@H](C(C)C)NC1=O` [Compound 1055] ({CH2CO}-NYDWV[Bip]R[NMeA][Bta]RLVSCA-NH2; thioether N-14), for which the 50% inhibitory concentration (IC50) was found to be 0.11 µM.

For `CC(C)C[C@@H]1NC(=O)[C@H](CCN)NC(=O)[C@@H](CC(C)C)NC(=O)[C@H](C)N(C)C(=O)[C@H](Cc2cnc[nH]2)NC(=O)[C@H](Cc2ccc(-c3ccccc3)cc2)NC(=O)[C@H](C(C)C)NC(=O)[C@H](Cc2c[nH]c3ccccc23)NC(=O)[C@H](CC(=O)O)NC(=O)[C@H](Cc2ccc(OCC(=O)O)cc2)NC(=O)[C@H](CC(N)=O)NC(=O)CSC[C@@H](C(=O)N[C@@H](C)C(N)=O)NC(=O)[C@H]([C@@H](C)O)NC(=O)[C@H](C(C)C)NC1=O` [Compound 1388] ({CH2CO}-NY(Carboxymethyl)DWV[Bip]H[NMeA][dL][Dab]LVTCA-NH2; thioether N-14), the IC50 was determined as 0.06 µM.

Consider `CCNC(=O)[C@H](CCN)NC(=O)[C@@H]1CSCC(=O)N[C@@H](Cc2ccc(OCC(=O)O)cc2)C(=O)N[C@@H](Cc2ccc(OCC(=O)O)cc2)C(=O)N[C@@H](CC(=O)O)C(=O)N[C@@H](Cc2cccc(C)c2)C(=O)N[C@@H](C(C)C)C(=O)N[C@@H](Cc2ccc(-c3ccccc3)cc2)C(=O)N[C@@H](Cc2ccc(O)cc2)C(=O)N(C)[C@@H](C)C(=O)N[C@H](CC(C)C)C(=O)N[C@@H](CCN)C(=O)N[C@@H](CC2CCCCC2)C(=O)N[C@@H](C(C)C)C(=O)N[C@@H](CCCN)C(=O)N1` [Compound 1870] ({CH2CO}-Y(Carboxymethyl)Y(Carboxymethyl)D[Phe(3-Me)]V[Bip]Y[NMeA][dL][Dab][Cha]V[Orn]C[Dab]-NHEt; thioether N-14), for which the IC50 came to 0.01 µM.

For `CC(C)C[C@@H]1NC(=O)[C@H](CCN)NC(=O)[C@@H](CC(C)C)NC(=O)[C@H](C)N(C)C(=O)[C@H](CCCNC(N)=O)NC(=O)[C@H](Cc2ccc(-c3ccccc3)cc2)NC(=O)[C@H](C(C)C)NC(=O)[C@H](Cc2c[nH]c3ccccc23)NC(=O)[C@H](CC(=O)O)NC(=O)[C@H](Cc2ccc(O)cc2)NC(=O)[C@H](CCCCN)NC(=O)CSC[C@@H](C(=O)N[C@@H](C)C(N)=O)NC(=O)[C@H]([C@@H](C)O)NC(=O)[C@H](C(C)C)NC1=O` [Compound 1348] ({CH2CO}-KYDWV[Bip][Cit][NMeA][dL][Dab]LVTCA-NH2; thioether N-14), the IC50 was 0.05 µM.

With `CC(C)C[C@@H]1NC(=O)[C@H](CCCN)NC(=O)[C@@H](Cc2csc3ccccc23)NC(=O)[C@H](C)N(C)C(=O)[C@H](CCCNC(=N)N)NC(=O)[C@H](Cc2ccc(-c3ccccc3)cc2)NC(=O)[C@H](C(C)C)NC(=O)[C@H](Cc2c[nH]c3ccccc23)NC(=O)[C@H](CC(=O)O)NC(=O)[C@H](Cc2ccc(O)cc2)NC(=O)[C@H](Cc2ccccc2)NC(=O)CSC[C@@H](C(=O)N[C@@H](C)C(N)=O)NC(=O)[C@H]([C@@H](C)O)NC(=O)[C@H](C(C)C)NC1=O` [Compound 1171] ({CH2CO}-FYDWV[Bip]R[NMeA][dBta][Orn]LVTCA-NH2; thioether N-14), the IC50 amounted to 0.15 µM.

Turning to `CC(C)C[C@@H]1NC(=O)[C@H](CCN)NC(=O)[C@@H](CC(C)C)NC(=O)[C@H](C)N(C)C(=O)[C@H](CCCNC(=N)N)NC(=O)[C@H](Cc2ccc(-c3ccccc3)cc2)NC(=O)[C@H](C(C)C)NC(=O)[C@H](Cc2cccs2)NC(=O)[C@H](CC(=O)O)NC(=O)[C@H](Cc2ccc(O)cc2)NC(=O)[C@H](CC(N)=O)NC(=O)CSC[C@@H](C(=O)N[C@@H](C)C(N)=O)NC(=O)[C@H]([C@@H](C)O)NC(=O)[C@H](C(C)C)NC1=O` [Compound 1218] ({CH2CO}-NYD[2Thi]V[Bip]R[NMeA][dL][Dab]LVTCA-NH2; thioether N-14), the IC50 was 0.2 µM.

Consider `C#CCC[C@H](NC(=O)[C@H](CCCN)NC(=O)[C@@H]1CSCC(=O)N[C@@H](Cc2ccncc2)C(=O)N[C@@H](Cc2ccc(OCC(=O)O)cc2)C(=O)N[C@@H](CC(=O)O)C(=O)N[C@@H](Cc2cccc(C)c2)C(=O)N[C@@H](C(C)C)C(=O)N[C@@H](Cc2ccc(-c3ccccc3)cc2)C(=O)N[C@@H](C(C)C)C(=O)N(C)[C@@H](C)C(=O)N[C@H](CC(C)C)C(=O)N[C@@H](CCN)C(=O)N[C@@H](CC2CCCCC2)C(=O)N[C@@H](C(C)C)C(=O)N[C@@H]([C@@H](C)O)C(=O)N1)C(N)=O` [Compound 1878] ({CH2CO}-[4Pal]Y(Carboxymethyl)D[Phe(3-Me)]V[Bip]V[NMeA][dL][Dab][Cha]VTC[Orn][Hpra]-NH2; thioether N-14), for which the IC50 is 0.01 µM.

With `CC(C)C[C@H]1NC(=O)[C@H](C)N(C)C(=O)[C@H](C(C)C)NC(=O)[C@H](Cc2ccc(-c3ccccc3)cc2)NC(=O)[C@H](C(C)C)NC(=O)[C@H](Cc2c[nH]c3ccccc23)NC(=O)[C@H](CC(=O)O)NC(=O)[C@H](Cc2ccncc2)NC(=O)[C@H](Cc2ccc(OCC(=O)O)cc2)NC(=O)CSC[C@@H](C(N)=O)NC(=O)[C@H](CCCCN)NC(=O)[C@H](C(C)C)NC(=O)[C@H](CC2CCCCC2)NC(=O)[C@H](CC(N)=O)NC1=O` [Compound 2246] ({CH2CO}-Y(Carboxymethyl)[4Pal]DWV[Bip]V[NMeA][dL]N[Cha]VKC-NH2; thioether N-14), the IC50 stood at 0.03 µM.

Take `CC(C)C[C@@H]1NC(=O)[C@H](CCN)NC(=O)[C@@H](CC(C)C)NC(=O)[C@H](C)N(C)C(=O)[C@H](CCCNC(N)=O)NC(=O)[C@H](Cc2ccc(-c3ccccc3)cc2)NC(=O)[C@H](C(C)C)NC(=O)[C@H](Cc2c[nH]c3ccccc23)NC(=O)[C@H](CC(=O)O)NC(=O)[C@H](Cc2cccnc2)NC(=O)[C@H](Cc2cccnc2)NC(=O)CSC[C@@H](C(=O)N[C@@H](C)C(N)=O)NC(=O)[C@H]([C@@H](C)O)NC(=O)[C@H](C(C)C)NC1=O` [Compound 1339] ({CH2CO}-[3Pal][3Pal]DWV[Bip][Cit][NMeA][dL][Dab]LVTCA-NH2; thioether N-14): the IC50 is 0.05 µM.

`CC(C)C[C@@H]1NC(=O)[C@H](CCN)NC(=O)[C@@H](CC(C)C)NC(=O)[C@H](CC(C)C)N(C)C(=O)[C@H](C(C)C)NC(=O)[C@H](Cc2ccc(-c3ccccc3)cc2)NC(=O)[C@H](C(C)C)NC(=O)[C@H](Cc2c[nH]c3ccccc23)NC(=O)[C@H](CC(=O)O)NC(=O)[C@H](Cc2ccc(O)cc2)NC(=O)[C@H](CC(N)=O)NC(=O)CSC[C@@H](C(=O)N[C@@H](C)C(N)=O)NC(=O)[C@H]([C@@H](C)O)NC(=O)[C@H](C(C)C)NC1=O` [Compound 1371] ({CH2CO}-NYDWV[Bip]V[NMeL][dL][Dab]LVTCA-NH2; thioether N-14): the IC50 amounted to 0.03 µM.

For `CC[C@H](C)[C@@H]1NC(=O)[C@H](Cc2ccc(-c3ccccc3)cc2)NC(=O)[C@H](C(C)C)NC(=O)[C@H](Cc2cccc(C)c2)NC(=O)[C@H](CC(=O)O)NC(=O)[C@H](Cc2ccc(O)cc2)NC(=O)[C@H](CC(N)=O)NC(=O)CSC[C@@H](C(=O)N[C@H](C)C(N)=O)NC(=O)[C@H](CCC(=O)O)NC(=O)[C@H](C(C)(C)O)NC(=O)[C@H](CC2CCCCC2)NC(=O)[C@H](CCN)NC(=O)[C@@H](CC(C)C)NC(=O)[C@H](C)N(C)C1=O` [Compound 1696] ({CH2CO}-NYD[Phe(3-Me)]V[Bip]I[NMeA][dL][Dab][Cha][Val(3-OH)]EC[dA]-NH2; thioether N-14), the IC50 is 0.01 µM.

For orientation: IC50 means the point on the concentration scale where inhibition reaches its midpoint.
